From patent US7763580B2, “Methods for treating conditions associated with the accumulation of excess extracellular matrix” (University of Utah Research Foundation, priority 1999, dated 2010)

How the values were obtained:
[1] = system: Normal fetal human mesangial cells; test: Renin-induced TGFβ production by fetal human mesangial cells (ELISA); assay type: cell-based; conditions: 10^−5 M inhibitor added at zero time with 10^−7 M human recombinant renin, FIG. 3
Protocol: Normal fetal human mesangial cells (Clonetics Corp., Clonetics, Walkersville, Md.) passaged 5 to 8 times, were plated (3,000 cell/cm^2) in 12 well plates in 2 ml of medium (Mesangial Basal Medium (Clonetics Corp.) containing 5% FCS, 10 μg/ml penicillin and 100 μg/ml streptomycin) and allowed to grow to confluence for 48 hours at 37EC, 5% CO2. Cultures were washed three times using sterile phosphate buffered saline at room temperature and then 2 ml/well of serum free MBM medium to induce quiescence. After 48 hours, the serum-free medium was removed and 2 ml/well of fresh serum-free medium was added. Human recombinant renin (Hoffman-La Roche Ltd., Basel, Switzerland) in concentrations from 10^−6 to 10^−12 M was added to each well. A blank and 5 ng/ml of TGFβ (R & D Systems, Minneapolis, Minn.) were used as controls. Cells and supernatants were harvested by centrifugation after 24 hrs of culture and frozen at ^−70EC until analysis. The total production and release of TGFβ into the culture supernatant was measured using an ELISA kit (R & D Systems). Induction of PAI-1 and fibronectin in the supernatant are also measured using anti-PAI-1 and anti-fibronectin antibodies in an ELISA to provide further confirmation of the inhibition of TGFβ. TGFβ, fibronectin and PAI-1 mRNA are measured using semi-quantitative RT-PCR.
Renin inhibitor Ro42-5892 (Hoffman-LaRoche, Basel, Switzerland), Losartan™ (Merck Pharmaceuticals, West Point, Pa.), Enalapril™ (Sigma Chemical Co., St. Louis, Mo., Prod. No. E6888), or TGFβ1 neutralizing antibody (R & D Systems) were added in the amounts indicated below to separate wells in triplicate to block the renin cascade at different sites after stimulation by renin: • 10^−5 M Renin Inhibitor R042-5892 (Hoffman-LaRoche) • 30 ng/ml Anti-TGFβ1 antibody (R & D Systems, #AB 101 NA) • 30 ng/ml Chicken IgG (control for anti-TGFβ1 antibody, R & D Systems, # AB 101 C) • 10^−5 M Enalapril™ (Sigma Chemical Co., St. Louis, Mo.) • 10^−5 M Losartan™ (Merck Pharmaceuticals, West Point, Pa.)
These inhibitors were added at zero time with 10^−7 M human recombinant renin (Hoffman-LaRoche).

[2] = system: anti-Thy 1 glomerulonephritis; test: Glomerular p-Smad2 (Western blot); assay type: in vivo, Sprague Dawley rats; conditions: enalapril alone
Protocol: These experiments were performed on male Sprague Dawley rats (200-250 g) obtained from the Sasco colony of Charles River Laboratories (Wilmington, Mass., USA). Animal housing and care were in accordance with the NIH Guide for the Care and Use of Laboratory Animals, NIH Publication No. 85-23, 1985. Animals were fed a normal protein diet (22% protein, Teklad No. 86 550, Teklad Premier Laboratory Diets, Madison, Wis., USA). Glomerulonephritis was induced by tail vein injection of 2.25 mg/Kg of the monoclonal anti-Thy 1.1 antibody OX-7 (NCCC, Biovest International Inc, Minneapolis, Minn., USA). OX-7 binds to a Thy 1-like epitope on the surface of mesangial cells causing complement-dependent cell lysis followed by fibrotic tissue repair (Bagchus et al., Lab Invest. 55:680-687 (1986)). Control animals were injected with similar volumes of phosphate-buffered saline (PBS). Groups of 8 rats were assigned and treated as outlined in Table 2. […] Bound antibodies were detected by developing the blot in ECL™ Western blotting detection reagents (Amersham Pharmacia Biotech) for 1 min. Quantitation of the bands on autoradiograms was performed using a BIO-RAD GS-700 imaging densitometer. Changes in p-Smad2 levels were determined by correcting for the densitometric intensity of β-actin for each sample. […] The percent reduction in disease severity in a treated group was calculated as: […]

anti-Thy 1 model = conditions: monotherapy, anti-Thy 1 model (Peters et al.); L-arginine 1% in drinking water; cited from earlier work

CCOC(=O)[C@H](CCc1ccccc1)N[C@@H](C)C(=O)N1CCC[C@H]1C(=O)O [enalapril]
renin-induced increase in TGFβ production [1]: does not reduce the renin-induced increase in TGFβ production | reduction of Smad2 activation (p-Smad2) [2]: 36% | reduction of markers of fibrotic disease (anti-Thy 1 model): about 50%
